Data on one compound can be found in paper PMC12196235, “Enhancing the Pharmacological Properties of Triterpenes Through Acetylation: An Anticancer and Antioxidant Perspective” (Molecules, 2025).

The subject of this assay is KB (human oral squamous carcinoma). In words: MTT assay, KB. The format is cell-based.

pIC50: −log10 of the molar value.

The compound `C=C(C)[C@@H]1CC[C@]2(CO)CC[C@]3(C)[C@H](CC[C@@H]4[C@@]5(C)CC[C@H](O)C(C)(C)[C@@H]5CC[C@]43C)[C@@H]12` [5a, betulin] showed a negative logarithm of the IC50 (pIC50) (Homo sapiens, MTT assay, KB) of 4.70. The “Selectivity index (SI), KB” value (IC50 HDF / IC50 KB) was found to be 0.80.
